Reference: ChEMBL document CHEMBL4190235, “Polysubstituted 2-aminoimidazoles as anti-biofilm and antiproliferative agents: Discovery of potent lead” (Eur J Med Chem, 2017)
Activity calls are given as the source filed them. No cut-off for these calls is given here.

What was measured:
Pseudomonas aeruginosa [1] = assay: Antibiofilm activity against Pseudomonas aeruginosa PA14 after 24 hrs by crystal violet staining based method; format: functional
Pseudomonas aeruginosa [2] = assay: Inhibition of planktonic growth of Pseudomonas aeruginosa PA14 cells; format: organism-based
Salmonella typhimurium [3] = assay: Antibiofilm activity against Salmonella typhimurium ATCC 14028 after 24 hrs by crystal violet staining based method; format: functional, Salmonella enterica subsp. enterica serovar Typhimurium
Salmonella typhimurium [4] = assay: Inhibition of planktonic growth of Salmonella typhimurium ATCC 14028; format: organism-based, Salmonella enterica subsp. enterica serovar Typhimurium; details: Salmonella enterica
Staphylococcus aureus [5] = assay: Antibiofilm activity against Staphylococcus aureus SH1000 after 48 hrs by crystal violet staining based method; format: functional
Staphylococcus aureus [6] = assay: Inhibition of planktonic growth of Staphylococcus aureus SH1000; format: organism-based
A-375 [7] = assay: Antiproliferative activity against human A375 cells after 48 hrs by MTT assay; format: functional, cell-based; details: A-375, 48 h
MIA PaCa-2 [8] = assay: Antiproliferative activity against human MIAPaCa2 cells after 48 hrs by MTT assay; format: functional, cell-based; details: MIA PaCa-2, 48 h
A-375 [9] = assay: Cytotoxicity against human A375 cells assessed as reduction in cell viability at IC50 concentration after 24 hrs by calcein AM-dye based assay; format: functional
MIA PaCa-2 [10] = assay: Cytotoxicity against human MIAPaCa2 cells assessed as reduction in cell viability at IC50 concentration after 24 hrs by calcein AM-dye based assay; format: functional
A-375 [11] = assay: Antiproliferative activity against human A375 cells assessed as reduction in colony forming ability at IC50 concentration after 10 to 14 days by crystal violet-staining based assay; format: functional, cell-based
MIA PaCa-2 [12] = assay: Antiproliferative activity against human MIAPaCa2 cells assessed as reduction in colony forming ability at IC50 concentration after 10 to 14 days by crystal violet-staining based assay; format: functional, cell-based
A-375 [13] = assay: Cell cycle arrest in human A375 cells assessed as accumulation at subG1 phase at IC50 concentration after 48 hrs by propidium iodide staining based flow cytometry (reference value: 1.1 +/- 0.4%); format: functional
A-375 [14] = assay: Cell cycle arrest in human A375 cells assessed as accumulation at G0/G1 phase at IC50 concentration after 48 hrs by propidium iodide staining based flow cytometry (reference value: 64.18 +/- 2.6%); format: functional
A-375 [15] = assay: Cell cycle arrest in human A375 cells assessed as accumulation at S phase at IC50 concentration after 48 hrs by propidium iodide staining based flow cytometry (reference value: 30.48 +/- 1.4%); format: functional
A-375 [16] = assay: Cell cycle arrest in human A375 cells assessed as accumulation at G2/M phase at IC50 concentration after 48 hrs by propidium iodide staining based flow cytometry (reference value: 8.18 +/- 2.2%); format: functional
MIA PaCa-2 [17] = assay: Cell cycle arrest in human MIAPaCa2 cells assessed as accumulation at subG1 phase at IC50 concentration after 48 hrs by propidium iodide staining based flow cytometry (reference value: 1.53 +/- 0.4%); format: functional
MIA PaCa-2 [18] = assay: Cell cycle arrest in human MIAPaCa2 cells assessed as accumulation at G0/G1 phase at IC50 concentration after 48 hrs by propidium iodide staining based flow cytometry (reference value: 66.05 +/- 2.2%); format: functional
MIA PaCa-2 [19] = assay: Cell cycle arrest in human MIAPaCa2 cells assessed as accumulation at S phase at IC50 concentration after 48 hrs by propidium iodide staining based flow cytometry (reference value: 17.29 +/- 1.8%); format: functional
MIA PaCa-2 [20] = assay: Cell cycle arrest in human MIAPaCa2 cells assessed as accumulation at G2/M phase at IC50 concentration after 48 hrs by propidium iodide staining based flow cytometry (reference value: 16.66 +/- 0.8%); format: functional

Q: `COc1ccc(Cc2nc(N)n(CC(=O)Nc3ccccc3)c2-c2ccccc2Br)cc1` was tested. Which MBIC50 (Pseudomonas aeruginosa [1]) did it give?
A: Its MBIC50 is 12.6 µM.

Q: What about the IC50 (Pseudomonas aeruginosa [2]) of the same compound?
A: The IC50 was 13.1 µM.

Q: And the MBIC50 (Salmonella typhimurium [3])?
A: Its MBIC50 is 17 µM.

Q: What about the IC50 (Salmonella typhimurium [4]) of the same compound?
A: The IC50 was 46.4 µM.

Q: What about the MBIC50 (Staphylococcus aureus [5]) of the same compound?
A: Its MBIC50 is 4.3 µM.

Q: And the IC50 (Staphylococcus aureus [6])?
A: Its IC50 is 23.3 µM.

Q: What about the IC50 (A-375 [7]) of the same compound?
A: Its IC50 is 1.4 µM.

Q: What about the IC50 (MIA PaCa-2 [8]) of the same compound?
A: The IC50 was 3.2 µM.

Q: What about the Activity (A-375 [9]) of the same compound?
A: The Activity was “Active”.

Q: What about the Activity (MIA PaCa-2 [10]) of the same compound?
A: The Activity was “Active”.

Q: What about the Activity (A-375 [11]) of the same compound?
A: The Activity was “Active”.

Q: What about the Activity (MIA PaCa-2 [12]) of the same compound?
A: The Activity was “Active”.

Q: And the Activity (A-375 [13])?
A: The Activity was 19.88%.

Q: And the Activity (A-375 [14])?
A: The Activity was 43.56%.

Q: And the Activity (A-375 [15])?
A: Its Activity is 32.1%.

Q: What about the Activity (A-375 [16]) of the same compound?
A: The Activity was 55.33%.

Q: And the Activity (MIA PaCa-2 [17])?
A: The Activity was 11.21%.

Q: What about the Activity (MIA PaCa-2 [18]) of the same compound?
A: The Activity was 50.41%.

Q: And the Activity (MIA PaCa-2 [19])?
A: The Activity was 24.5%.

Q: What about the Activity (MIA PaCa-2 [20]) of the same compound?
A: The Activity was 40.45%.
